In paper PMC10046961, “High-Throughput Screening Assay for Detecting Drug-Induced Changes in Synchronized Neuronal Oscillations and Potential Seizure Risk Based on Ca^2+ Fluorescence Measurements in Human Induced Pluripotent Stem Cell (hiPSC)-Derived Neuronal 2D and 3D Cultures” (Cells, 2023):
Where two headings read alike, the source gives them in different places. Marks after values point to notes of the source that are not given here.

How the values were obtained:
[1] = test system: hiPSC-derived neurons co-cultured with human primary astrocytes in 2D; assay: Ca2+ transient oscillation assay (FDSS), 2D co-culture; type: cell-based; details: for effect on peak number / Ca2+ neuronal oscillations, in words: 2D format; for activation at 0.37 µM / activation at 1.11 µM / activation at 3.33 µM / activation at 10 µM: Homo sapiens, 1 h
Text: (§1) In this study, we used cryopreserved excitatory neurons that were differentiated from human induced pluripotent stem cells (hiPSCs; Cat #: EX-SeV-CW50065) (Elixirgen Scientific, Inc., Baltimore, MD, USA). The hiPSCs used, namely, CW50065 were derived from a healthy person and distributed by the California Institute of Regenerative Medicine Human Induced Pluripotent Stem Cell Repository. Human iPSC-derived excitatory neurons were differentiated from CW50065 using a proprietary cocktail of differentiation-inducing factors called Quick-Neuron™ EX-SeV (Batch number: EX-SeV-CW50065-L; Elixirgen Scientific, Inc.), cryopreserved 3 days after differentiation induction and distributed. Human iPSC-derived excitatory neurons were recovered from cryopreservation and maintained essentially as instructed by the manufacturer.
(§2) Cryopreserved human primary astrocytes (#N7805100, Thermo Fisher Scientific, Waltham, MA, USA) were recovered as instructed by the manufacturer and seeded in a 10 cm dish at the density of 2,000,000 cells. The culture was maintained using the Human Astrocytes Kit (#N7805200, Thermo Fisher Scientific) for 12 days. Half of the culture medium was replaced with fresh medium every 2–3 days during the culture period. These astrocytes were harvested using StemPro™ Accutase™ Cell Dissociation Reagent (#A1110501, Thermo Fisher Scientific) when they reached confluency. These cells were cryopreserved in STEM-CELLBANKER® GMP grade (ZENOGEN PHARMA, Kohriyama, Fukushima Japan) at the density of 2,000,000 cells per vial as working stocks for co-culture with neurons in 2D and 3D conditions described below. After a working stock was recovered, astrocytes were directly mixed with hiPSC-derived neurons for plating without further expansion.
Live neurons (hiPSC neurons) and human primary astrocytes were recovered from cryopreservation as described above and seeded in each well of 384-well plates at the density of 10,000 cells (HiPSC-cortical neurons) and human primary astrocytes at 2500 cells (ratio 4:1). These co-cultures were maintained under the medium conditions recommended by the manufacturer, namely Medium N(G2P), to complete the differentiation of excitatory neurons for the first week. […] Half of the culture medium was replaced with fresh medium every 3–4 days during the culture period.
After the incubation, the culture medium containing Cal-520 was replaced with 50 μL of HBSS supplemented with 0.1 mM MgCl2, 2 mM CaCl2, 10 mM HEPES, and 10 mM glucose and incubated at 37 ℃ for 15 min.
(§3) Prior to the fluorescence measurements, all wells to be measured were treated with 0.04% dimethyl sulfoxide (DMSO) to stabilize the oscillation signal. The first recording started 10 min after the addition of DMSO for each plate for 20 min. The effects of the test compound were recorded again starting 60 min after the administration of compounds, for 20 min.
Twenty-five compounds (Table 1) were first dissolved in either DMSO (most compounds) or distilled water depending on the compound, and further diluted with PBS to produce stock solutions concentrated 10-fold. […] The final concentration of DMSO was adjusted to 0.1%. Changes in the fluorescence intensity (FI) produced by Ca^2+ flux were measured at 37 °C for all wells of a 384-well plate simultaneously using the FDSS/µCell system (#C13299, Hamamatsu Photonics, Hamamatsu, Shizuoka, Japan). The excitation and the emission wavelengths were 470 nm and 540 nm, respectively. The recording duration was 20 min with a sampling frequency of 2 Hz for cells cultured under 2D conditions and 10 Hz for cells cultured under 3D conditions.

[2] = test system: hiPSC-derived neurons co-cultured with human primary astrocytes in 3D; assay: Ca2+ transient oscillation assay (FDSS), 3D spheroids; type: cell-based; details: for Area under the curve - 3D Mean / Peak Number—3D Mean / Peak width - 3D Mean / Peak-to-peak interval - 3D Mean: 60 min
Text: as §1, §2
We used U-shaped-bottom 96-well plates (#174925, Thermo Fisher Scientific) without any prior coating to make a spheroid in each well. Neurons and astrocytes were seeded and maintained as described for 2D cultures, except for the following modifications. First, neurons and astrocytes were seeded in each well of the 96-well plates at the density of 8000 hiPSC neurons with 8000 human primary astrocytes (8000)/well (ratio 1:1). Second, when the differentiation of excitatory neurons was completed one week after seeding, cells were fed with BrainPhys^TM Neuronal Medium (#05793, […] Technologies, Vancouver, BC, Canada) supplemented with 2% SM1 Neuronal Supplement, 1% N2 Supplement-A, and 10% Neuron culture medium for 5 weeks.
Cells maintained as spheroids (3D) in the U-shaped-bottom 96-well plates were transferred into 384-well spheroid plates (#4516, Merck, Corning, NY, USA) with 25 µL of the culture medium. A Ca^2+-indicating dye solution including […] was prepared using the EarlyTox™ Cardiotoxicity Kit (#R8211, Molecular Devices, LLC, San Jose, CA, USA) according to the manufacturer. Then, the same volume of the dye solution was dispensed into each well.
as §3
Twenty-five compounds (Table 1) were first dissolved in either DMSO (most compounds) or distilled water depending on the compound, and further diluted with PBS to produce stock solutions concentrated 10-fold. Then, 5 μL of each compound solution was injected into each well using an automatic pipetting robot (#4505, ASSIST PLUS pipetting robot, Integra Biosciences Corp., Hudson, NH, USA), so that the final concentration of each compound was 1-fold nominal in the well.

[3] = read-out: Area under the curve - 2D Mean
[4] = read-out: Peak amplitude - 2D Mean
[5] = read-out: Peak-to-peak interval - 2D Mean
[6] = symbol, based on % changes of baseline value in the peak number, concentration in parentheses in same cell

Row | SMILES | effect on peak number / Ca2+ neuronal oscillations, in words [1] | activation at 0.37 µM [1, 3] | activation at 1.11 µM [1, 3] | activation at 3.33 µM [1, 3] | activation at 10 µM [1, 3] | activation at 0.37 µM ([1]; read-out: Peak Number—2D Mean) | activation at 1.11 µM ([1]; read-out: Peak Number—2D Mean) | activation at 3.33 µM ([1]; read-out: Peak Number—2D Mean) | activation at 10 µM ([1]; read-out: Peak Number—2D Mean) | activation at 0.37 µM [1, 4] | activation at 1.11 µM [1, 4] | activation at 3.33 µM [1, 4] | activation at 10 µM [1, 4] | activation at 0.37 µM ([1]; read-out: Peak width - 2D Mean) | activation at 1.11 µM ([1]; read-out: Peak width - 2D Mean) | activation at 3.33 µM ([1]; read-out: Peak width - 2D Mean) | activation at 10 µM ([1]; read-out: Peak width - 2D Mean) | activation at 0.37 µM [1, 5] | activation at 1.11 µM [1, 5] | activation at 3.33 µM [1, 5] | also measured
1 | CN1CCc2cc3c(cc2[C@H]1[C@@H]1OC(=O)c2c1ccc1c2OCO1)OCO3 [Bicuculline] | significantly reduced peak number | 15.8% | 39.6% | 1.6% | 22.8% | -29.4% | -3.5% | 9.9% | 5.8% | -4.1% | 9.3% | -14.1% | 9.8% | 16.1% | 33% | 3.7% | 11.5% | -17.2% | 8.2% | -26.1% | activation at 10 µM [1, 5]: -13.2%; Ca²⁺ Transient Peak Number (2D) [1, 6]: ±; Area under the curve - 3D Mean ([2]; 0.37 µM): 105.2 % change from baseline; Peak Number—3D Mean ([2]; 0.37 µM): −14.9 % change from baseline; Peak width - 3D Mean ([2]; 0.37 µM): −0.3 % change from baseline; Peak-to-peak interval - 3D Mean ([2]; 0.37 µM): 7.6 % change from baseline; Area under the curve - 3D Mean ([2]; 1.11 µM): 108.3 % change from baseline; Peak Number—3D Mean ([2]; 1.11 µM): −13.0 % change from baseline; Peak width - 3D Mean ([2]; 1.11 µM): 5.7 % change from baseline; Peak-to-peak interval - 3D Mean ([2]; 1.11 µM): 20.3 % change from baseline; Area under the curve - 3D Mean ([2]; 3.33 µM): 107.4 % change from baseline; Peak Number—3D Mean ([2]; 3.33 µM): 5.8 % change from baseline; Peak width - 3D Mean ([2]; 3.33 µM): 2.7 % change from baseline; Peak-to-peak interval - 3D Mean ([2]; 3.33 µM): 12.1 % change from baseline; Area under the curve - 3D Mean ([2]; 10 µM): 115.2 % change from baseline; Peak Number—3D Mean ([2]; 10 µM): −5.8 % change from baseline; Peak width - 3D Mean ([2]; 10 µM): 8.5 % change from baseline; Peak-to-peak interval - 3D Mean ([2]; 10 µM): 9.4 % change from baseline; effect on peak number of oscillations, in words ([2]; 3D-cultured): did not significantly change the peak number; Ca²⁺ Transient Peak Number (3D) [2, 6]: ±
2 | C=C(C)[C@H]1CN[C@H](C(=O)O)[C@H]1CC(=O)O [Kainic Acid] |  | 32.3% | 25.2% | -48.2% | -100% | 21% | 26.8% | -53.3% | -100% | 11.8% | -2.2% | -55% | -100% | 22% | 37.4% | -23% | -100% | -1.2% | -19.6% | -53% | response of positive controls on Ca2+ transient oscillations ([1]; 2D, 4-AP 30 µM, kainic acid 100 µM): significant responses; change of Ca2+ neuronal oscillations (Figure 1) ([1]; 4-AP at 30 µM, kainic acid at 10 µM): inhibition; activation at 10 µM [1, 5]: -100%; Area under the curve - 3D Mean ([2]; 0.37 µM): 120.5 % change from baseline; Peak Number—3D Mean ([2]; 0.37 µM): 1.3 % change from baseline; Peak width - 3D Mean ([2]; 0.37 µM): 4.9 % change from baseline; Peak-to-peak interval - 3D Mean ([2]; 0.37 µM): 0.2 % change from baseline; Area under the curve - 3D Mean ([2]; 1.11 µM): 141.9 % change from baseline; Peak Number—3D Mean ([2]; 1.11 µM): 16.4 % change from baseline; Peak width - 3D Mean ([2]; 1.11 µM): 10.6 % change from baseline; Peak-to-peak interval - 3D Mean ([2]; 1.11 µM): −16.0 % change from baseline; Area under the curve - 3D Mean ([2]; 3.33 µM): 174.3 % change from baseline; Peak Number—3D Mean ([2]; 3.33 µM): 18.7 * % change from baseline; Peak width - 3D Mean ([2]; 3.33 µM): 41.9 % change from baseline; Peak-to-peak interval - 3D Mean ([2]; 3.33 µM): −13.0 % change from baseline; Area under the curve - 3D Mean ([2]; 10 µM): 58.3 % change from baseline; Peak Number—3D Mean ([2]; 10 µM): 102.8 ** % change from baseline; Peak width - 3D Mean ([2]; 10 µM): −20.1 % change from baseline; Peak-to-peak interval - 3D Mean ([2]; 10 µM): −45.2 % change from baseline; response of positive controls on Ca2+ transient oscillations ([2]; 3D, 4-AP 30 µM, kainic acid 100 µM): significant responses
3 | NCC(=O)O [glycine] | significantly reduced peak number |  |  |  |  |  |  |  |  |  |  |  |  |  |  |  |  |  |  |  | 
4 | NC[C@H](O)c1ccc(O)c(O)c1 [norepinephrine] | significantly reduced peak number |  |  |  |  |  |  |  |  |  |  |  |  |  |  |  |  |  |  |  | 
